Reference: ChEMBL document CHEMBL1144756, “Isoprenoid glycosides from Liriosma ovata” (2008)
Converted amounts (≈) assume the structure as drawn.

How the values were obtained:
Format in all cases: functional
[1] = tested on: Staphylococcus aureus; test: Antibacterial activity against Staphylococcus aureus ATCC 6538 after 24 hrs by broth microdilution method; conditions: ATCC 6538, 24 h
[2] = tested on: Pseudomonas aeruginosa; test: Antibacterial activity against Pseudomonas aeruginosa ATCC 9027 after 24 hrs by broth microdilution method; conditions: ATCC 9027, 24 h
[3] = tested on: Mus musculus; test: Antiinflammatory activity against corton oil-induced ear edema in mouse

| MIC [1] | MIC [2] | SMILES | MBC [1] | MBC [2] | ID50 [3] |
| --- | --- | --- | --- | --- | --- |
| 2 µg/mL (≈ 4.6 µM) | 4 µg/mL (≈ 9.21 µM) | CC(C)(O)[C@@H]1CC[C@]2(C)[C@@H](O[C@@H]3O[C@H](CO)[C@@H](O)[C@H](O)[C@H]3O)C[C@@H](O)[C@](C)(O)[C@H]2C1 | 4 µg/mL (≈ 9.21 µM) | 4 µg/mL (≈ 9.21 µM) | – |
| 4 µg/mL (≈ 7.68 µM) | > 20 µg/mL | CC(=O)/C=C/[C@@]1(O)[C@H](C)C[C@H](O[C@@H]2O[C@H](CO[C@@H]3OC[C@](O)(CO)[C@H]3O)[C@@H](O)[C@H](O)[C@H]2O)CC1(C)C | – | – | – |
| > 20 µg/mL | > 20 µg/mL | CC(C)O[C@@H]1O[C@H](CO[C@@H]2OC[C@](O)(CO)[C@H]2O)[C@@H](O)[C@H](O)[C@H]1O | – | – | – |
| – | – | COc1ccc2c(c1)c(CC(=O)O)c(C)n2C(=O)c1ccc(Cl)cc1 [INDOMETHACIN] | – | – | 93 microg/cm2 |
